The source of these data is patent US20230293458A1, “MULTIBIOTIC AGENTS AND METHODS OF USING THE SAME” (Flagship Pioneering Innovations V, Inc., priority 2017, published 2023).

A short description of data set [1]: Stability of multibiotic agents in Simulated Gastric Fluid (SGF). The class given is in vitro ADME. Particulars: simulated gastric fluid pH 1.6 with pepsin, 37° C., 1 μM. How it is done:
Assay 3. Stability of multibiotic agents in Simulated Gastric Fluid (SGF). This assay can be used to assess the stability of a multibiotic agent in a stomach.
Medium was prepared by dissolving 2 g of sodium chloride in 0.6 L in ultrapure water (MilliQ®, Millipore Sigma, Darmstadt, Germany). The pH was adjusted to 1.6 with 1 N hydrochloric acid, and the volume was then adjusted to 1 L with purified water.
60 mg FaSSIF powder (Biorelevant™, London, UK) were dissolved in 500 mL buffer (above). Pepsin was added (0.1 mg/mL) (Millipore Sigma, Darmstadt, Germany), and the solution was stirred. The resulting SGF media were used fresh for each experiment.
Test compounds were dissolved in DMSO stock to 1 mM. An aliquot of the DMSO stock solution was removed and diluted in the SGF Media in 15 mL falcon tubes to generate a total compound concentration of 1 μM. A 1 mL aliquot was immediately removed and diluted once with 1 volume of acetonitrile for T0 timepoint. The mixture was sealed and mixed at 37° C. in an incubator. Aliquots (1 mL) were removed at regular intervals and immediately quenched by the addition of 1 volume of acetonitrile. The resulting samples were analyzed by LC/MS to determine degradation rates in SGF.

Data set [2] in a line: Stability of multibiotic agents in Simulated Intestinal Fluid (SIF). The class given is in vitro ADME. Particulars: simulated intestinal fluid pH 6.7 with pancreatin, 37° C., 1 μM. As to the method:
Assay 2. Stability of multibiotic agents in Simulated Intestinal Fluid (SIF). This assay can be used to assess the stability of a multibiotic agent in a small intestine. Phosphate buffer was prepared by dissolving 0.42 g of sodium hydroxide pellets and 3.95 g of monobasic sodium phosphate monohydrate and 6.19 g of sodium chloride in ultrapure water (MilliQ®, Millipore Sigma, Darmstadt, Germany). The pH was adjusted to 6.7 using aq. HCl and aq. NaOH, as necessary, and the solution was diluted with ultrapure water to produce 1 L of the pH 6.7 buffer. 112 mg FaSSIF powder (Biorelevant™, London, UK) was dissolved in 50 mL of the pH 6.7 buffer. 2 to 3 mL of the resulting solution were then added to 500 mg pancreatin (Millipore Sigma, Darmstadt, Germany). The resulting mixture was agitated by finger tapping the vessel containing the mixture until milky suspension formed. At this time, the remainder of the 50 mL FaSSiF/pH 6.7 buffer solution was added. The resulting suspension was flipped upside down 10 times to produce SIF, which was used fresh. Test compounds are dissolved in DMSO stock to 1 mM. An aliquot of the DMSO stock solution is removed and diluted in the SIF media in 15 mL falcon tubes to produce a mixture with a tested compound concentration of 1 μM. A 1 mL aliquot is immediately removed and diluted once with 1 volume of acetonitrile for T0 timepoint. The mixture is sealed and agitated at 37° C. in an incubator. Aliquots (1 mL) are removed at regular intervals and immediately quenched by the addition of 1 volume of acetonitrile. The resulting samples are analyzed by LC/MS to determine degradation rates.

Consider `CCC(=O)OC1O[C@@H](C)[C@@H](OC(=O)CC)[C@@H](OC(=O)CC)[C@@H]1OC(=O)CC` (stereo partly drawn) [Example 157, [(2S,3R,4R,5S)-2-methyl-4,5,6-tri(propanoyloxy)tetrahydropyran-3-yl] propanoate], for which the “Assay 2 (SGF) (% Remaining @ 4 hours)” value in data set [1] was “C (>75% of the tested compound remaining)”. The “Assay 3 (SIF) (% @ Remaining 4 hours)” value in data set [2] was “A (<25% of the tested compound remaining)”.
Consider `CC(=O)Oc1ccc(C2CC(=O)c3c(OC(C)=O)cc(OC(C)=O)cc3O2)cc1` (centres unmarked) [Example 170, [4-(5,7-diacetoxy-4-oxo-chroman-2-yl)phenyl] acetate], for which the “Assay 2 (SGF) (% Remaining @ 4 hours)” value in data set [1] is listed as “C (>75% of the tested compound remaining)”. Besides, in data set [2], the “Assay 3 (SIF) (% @ Remaining 4 hours)” value is “A (<25% of the tested compound remaining)”.
Take `CC(C)(COC(=O)CCc1c[nH]c2ccccc12)[C@@H](OC(=O)CCc1c[nH]c2ccccc12)C(=O)NCCC(N)=O` [Example 98, [(3R)-4-[(3-amino-3-oxo-propyl)amino]-3-[3-(1H-indol-3-yl)propanoyloxy]-2,2-dimethyl-4-oxo-butyl] 3-(1H-indol-3-yl)propanoate]: the “Assay 2 (SGF) (% Remaining @ 4 hours)” value in data set [1] is on record as “C (>75% of the tested compound remaining)”. Also, the “Assay 3 (SIF) (% @ Remaining 4 hours)” value in data set [2] was “A (<25% of the tested compound remaining)”.
With `CC(=O)Oc1ccc(/C=C/c2cc(OC(C)=O)cc(OC(C)=O)c2)cc1` [Example 118, [(E)-2-(3,5-diacetoxyphenyl)vinyl]phenyl] acetate], in data set [1], the “Assay 2 (SGF) (% Remaining @ 4 hours)” value is “C (>75% of the tested compound remaining)”. Also, the “Assay 3 (SIF) (% @ Remaining 4 hours)” value in data set [2] was “C (>75% of the tested compound remaining)”.
Consider `CCCC(=O)O[C@@H]1[C@H](OC(=O)CCC)COC(Oc2ccc(N)cc2C(=O)O)[C@@H]1OC(=O)CCC` (stereo partly drawn) [Example 117, 5-amino-2-[(3R,4R,5R)-3,4,5-tri(butanoyloxy)tetrahydropyran-2-yl]oxy-benzoic acid], for which, in data set [1], the “Assay 2 (SGF) (% Remaining @ 4 hours)” value is recorded as “C (>75% of the tested compound remaining)”. Besides, the “Assay 3 (SIF) (% @ Remaining 4 hours)” value in data set [2] was “C (>75% of the tested compound remaining)”.
Consider `Cc1c(C)c2c(c(C)c1OC(=O)C1OCC[C@@H](C)O1)CC[C@@](C)(CCC[C@H](C)CCC[C@H](C)CCCC(C)C)O2` (stereo partly drawn) [Example 183, [(2R)-2,5,7,8-tetramethyl-2-[(4R,8R)-4,8,12-trimethyltridecyl]chroman-6-yl] (4R)-4-methyl-1,3-dioxane-2-carboxylate], for which the “Assay 2 (SGF) (% Remaining @ 4 hours)” value in data set [1] is listed as “C (>75% of the tested compound remaining)”. The “Assay 3 (SIF) (% @ Remaining 4 hours)” value in data set [2] is “A (<25% of the tested compound remaining)”.
Regarding `CCCC(=O)O[C@H]1CO[C@H]2[C@@H]1OC[C@H]2OC(=O)CCC` [Example 108, [(3S,3aR,6R,6aR)-6-butanoyloxy-2,3,3a,5,6,6a-hexahydrofuro[3,2-b]furan-3-yl] butanoate], the “Assay 2 (SGF) (% Remaining @ 4 hours)” value in data set [1] is “C (>75% of the tested compound remaining)”. Also, the “Assay 3 (SIF) (% @ Remaining 4 hours)” value in data set [2] is “B (25-75% of the tested compound remaining)”.
Taken in the same sequence, the figures for `O=C(Cc1c[nH]c2ccccc12)O[C@H]1OC[C@@H](OC(=O)Cc2c[nH]c3ccccc23)[C@@H](OC(=O)Cc2c[nH]c3ccccc23)[C@H]1OC(=O)Cc1c[nH]c2ccccc12` [Example 145, [(3R,4R,5R,6R)-4,5,6-tris[[2-(1H-indol-3-yl)acetyl]oxy]tetrahydropyran-3-yl] 2-(1H-indol-3-yl)acetate] were “C (>75% of the tested compound remaining)” and “A (<25% of the tested compound remaining)”.
Take `C=C1CC[C@H](OC(=O)[C@H](OC(=O)CCC)[C@@H](OC(=O)CCC)[C@H](OC(=O)CCC)[C@@H](COC(=O)CCC)OC(=O)CCC)C/C1=C/C=C1\CCC[C@]2(C)[C@@H]([C@H](C)CCCC(C)C)CC[C@@H]12` [Example 184, [(1S,3Z)-3-[(2E)-2-[(1R,3aS,7aR)-1-[(1R)-1,5-dimethylhexyl]-7a-methyl-2,3,3a,5,6,7-hexahydro-1H-inden-4-ylidene]ethylidene]-4-methylene-cyclohexyl] (2R,3S,4R,5R)-2,3,4,5,6-penta(butanoyloxy)hexanoate]: the “Assay 2 (SGF) (% Remaining @ 4 hours)” value in data set [1] is on record as “B (25-75% of the tested compound remaining)”. Besides, in data set [2], the “Assay 3 (SIF) (% @ Remaining 4 hours)” value is on record as “A (<25% of the tested compound remaining)”.
Take `CC(C)(COC(=O)/C=C/c1c[nH]c2ccccc12)[C@@H](OC(=O)/C=C/c1c[nH]c2ccccc12)C(=O)NCCCOC(=O)/C=C/c1c[nH]c2ccccc12` [Example 125, 3-[[(2R)-2,4-bis[[(E)-3-(1H-indol-3-yl)prop-2-enoyl]oxy]-3,3-dimethyl-butanoyl]amino]propyl (E)-3-(1H-indol-3-yl)prop-2-enoate]: the “Assay 2 (SGF) (% Remaining @ 4 hours)” value in data set [1] is recorded as “C (>75% of the tested compound remaining)”. Also, the “Assay 3 (SIF) (% @ Remaining 4 hours)” value in data set [2] is given as “C (>75% of the tested compound remaining)”.
For the molecule `CC(=O)Oc1cc(OC(C)=O)c2c(=O)c(OC(C)=O)c(-c3ccc(OC(C)=O)c(OC(C)=O)c3)oc2c1` [Example 74, [2-acetoxy-4-(3,5,7-triacetoxy-4-oxo-chromen-2-yl)phenyl] acetate], in data set [1], the “Assay 2 (SGF) (% Remaining @ 4 hours)” value is given as “C (>75% of the tested compound remaining)”. In addition, in data set [2], the “Assay 3 (SIF) (% @ Remaining 4 hours)” value was “A (<25% of the tested compound remaining)”.
In the case of `CCC(=O)OC1OC[C@H](OC(=O)CC)[C@H](OC(=O)CC)[C@H]1OC(=O)CC` (stereo partly drawn) [Example 149, [(3S,4S,5R)-4,5,6-tri(propanoyloxy)tetrahydropyran-3-yl] propanoate], the “Assay 2 (SGF) (% Remaining @ 4 hours)” value in data set [1] is “C (>75% of the tested compound remaining)”. Also, in data set [2], the “Assay 3 (SIF) (% @ Remaining 4 hours)” value is “C (>75% of the tested compound remaining)”.
On to `CCCC(=O)O[C@H](C)CCOC(=O)C[C@@H](C)OC(=O)CCC` [Example 173, [(3R)-3-butanoyloxybutyl] (3R)-3-butanoyloxybutanoate], for which, in data set [1], the “Assay 2 (SGF) (% Remaining @ 4 hours)” value was “C (>75% of the tested compound remaining)”. Moreover, the “Assay 3 (SIF) (% @ Remaining 4 hours)” value in data set [2] was “A (<25% of the tested compound remaining)”.
For the molecule `CCCC(=O)OC[C@@H](OC(=O)CCC)[C@H]1OC[C@H](OC(=O)CCC)[C@H]1OC(=O)CCC` [Example 87, [(2R)-2-butanoyloxy-2-[(2R,3R,4S)-3,4-di (butanoyloxy)tetrahydrofuran-2-yl]ethyl] butanoate], in data set [1], the “Assay 2 (SGF) (% Remaining @ 4 hours)” value is given as “C (>75% of the tested compound remaining)”. Moreover, the “Assay 3 (SIF) (% @ Remaining 4 hours)” value in data set [2] was “C (>75% of the tested compound remaining)”.
Consider `CC(C)(COC(=O)Cc1c[nH]c2ccccc12)[C@@H](OC(=O)Cc1c[nH]c2ccccc12)C(=O)NCCC(N)=O` [Example 97, [(3R)-4-[(3-amino-3-oxo-propyl)amino]-3-[2-(1H-indol-3-yl)acetyl]oxy-2,2-dimethyl-4-oxo-butyl] 2-(1H-indol-3-yl)acetate], for which the “Assay 2 (SGF) (% Remaining @ 4 hours)” value in data set [1] is on record as “C (>75% of the tested compound remaining)”. The “Assay 3 (SIF) (% @ Remaining 4 hours)” value in data set [2] was “C (>75% of the tested compound remaining)”.
For `O=C(CCc1c[nH]c2ccccc12)Oc1ccc2c(c1)oc(=O)c1cc(OC(=O)CCc3c[nH]c4ccccc34)c(OC(=O)CCc3c[nH]c4ccccc34)cc12` [Example 56, [8,9-bis[3-(1H-indol-3-yl)propanoyloxy]-6-oxo-benzo[c]chromen-3-yl] 3-(1H-indol-3-yl)propanoate], in data set [1], the “Assay 2 (SGF) (% Remaining @ 4 hours)” value was “C (>75% of the tested compound remaining)”. Besides, in data set [2], the “Assay 3 (SIF) (% @ Remaining 4 hours)” value was “C (>75% of the tested compound remaining)”.
